Assay [1] addresses T1, shelterin complex (Homo sapiens, UniProt P54274).
T1 construct: evicted full-length TRF1 from the shelterin complex; made in house; host or cells: Spodoptera frugiperda (Sf9) insect cells, MultiBac baculovirus
T1 sequence (P54274 1-439): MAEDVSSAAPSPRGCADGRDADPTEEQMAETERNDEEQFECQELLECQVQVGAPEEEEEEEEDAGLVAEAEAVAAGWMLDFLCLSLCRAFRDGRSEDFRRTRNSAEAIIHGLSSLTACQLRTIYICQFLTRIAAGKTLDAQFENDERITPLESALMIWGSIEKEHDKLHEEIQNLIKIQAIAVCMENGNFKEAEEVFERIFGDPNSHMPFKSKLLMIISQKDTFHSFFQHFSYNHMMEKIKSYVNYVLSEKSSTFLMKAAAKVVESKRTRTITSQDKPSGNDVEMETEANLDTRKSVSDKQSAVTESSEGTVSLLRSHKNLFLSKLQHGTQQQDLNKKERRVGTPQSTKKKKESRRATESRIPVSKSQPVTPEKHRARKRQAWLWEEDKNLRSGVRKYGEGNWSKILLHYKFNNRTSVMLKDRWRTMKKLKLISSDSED
Kind of assay: Mass photometry assay of TRF1 eviction from shelterin. It counts as biochemical. An excerpt: We developed a mass-photometry based assay to evaluate the ability of compound 40 to disrupt the TRF1TRFH:TIN2TBM interaction and subsequently evict TRF1 from the full shelterin complex. We expressed recombinant shelterin in insect cells (see Materials and Methods) and purified it via affinity and size exclusion chromatography (SEC). Given the compositional heterogeneity of shelterin, also observed by Zinder et al. 2022[42], we enriched a complex of approximately 700 kDa by serial SEC. The resulting complex was incubated with increasing concentrations of compound 40, and the resulting mass distribution was analysed by mass photometry. Due to disassembly of the complex upon dilution to nanomolar concentrations required for mass photometry, we stabilised it by limited crosslinking using glutaraldehyde prior to dilution to assess potential TRF1 dissociation (Supplementary Fig. 6). With increasing concentrations of compound 40, we observed an increase in a peak around 100 kDa, corresponding in size to the full-length TRF1 dimer (Fig. 6a; Supplementary Fig. 7a, b), consistent with eviction of TRF1 from shelterin. […] Additionally, the mass photometry peak of shelterin shifted and reduced in size by approximately 100 kDa upon the addition of > 250 µM of compound 40, indicating the removal of TRF1 from the complex (Fig. 6a). To confirm whether the evicted entity corresponds to TRF1, we analysed the full shelterin complex by SDS-PAGE, upon co-incubation with increasing amounts of compound 40 or control compound 60 and subsequent mild crosslinking, analogous to the mass photometry experiment. […] To confirm its identity, we performed Western blotting, probing for TRF1, TRF2 and TIN2. This analysis confirmed that the released protein is TRF1 (Fig. 6c, f).
Mass Photometry (MP) experiments were performed using a Refeyn OneMP instrument. […] Data were processed and analysed using Refeyn DiscoverMP software (v2024 R2). Gaussian fits for the mass distribution histograms, mass measurements and percentage abundances (of peak counts to total counts) were determined for each peak observed.

Assay [2] concerns the target T1, shelterin complex. Kind of assay: SDS-PAGE/Western blot of crosslinked shelterin after compound incubation. In kind it is biochemical. An excerpt:
We developed a mass-photometry based assay to evaluate the ability of compound 40 to disrupt the TRF1TRFH:TIN2TBM interaction and subsequently evict TRF1 from the full shelterin complex. We expressed recombinant shelterin in insect cells (see Materials and Methods) and purified it via affinity and size exclusion chromatography (SEC). Given the compositional heterogeneity of shelterin, also observed by Zinder et al. 2022[42], we enriched a complex of approximately 700 kDa by serial SEC. The resulting complex was incubated with increasing concentrations of compound 40, and the resulting mass distribution was analysed by mass photometry. […] To confirm whether the evicted entity corresponds to TRF1, we analysed the full shelterin complex by SDS-PAGE, upon co-incubation with increasing amounts of compound 40 or control compound 60 and subsequent mild crosslinking, analogous to the mass photometry experiment. […]
For SDS-PAGE and Western blotting studies, SEC-purified shelterin was diluted to 0.9 µM and incubated with increasing concentrations of compound 40 or 60 (negative control) in the same range as for the MP experiment (from 0 to 300 µM). […] The samples were then analysed by SDS-PAGE, followed by either Coomassie staining or Western blotting. […] Normalised signal intensities from three independent experiments were analysed and plotted using GraphPad Prism (v10.5.0).
Background: In western blotting, separated proteins are transferred to a membrane and probed.

The structures appear in SMILES notation. “Also recorded” adds a separate entry of the source.

On to `COc1cc(COc2ccc(S(=O)(=O)[O-])c3ccccc23)cc(OC)c1.[Na+]` [Compound 40], for which the “concentration at which TRF1 eviction reaches a plateau” value at shelterin complex [1] (1.25 µM shelterin, 100-300 µM compound, 1 h, glutaraldehyde crosslinking, n = 1) stood at 250 µM. Besides, the “eviction of TRF1 from shelterin (100-kDa TRF1 peak)” value at shelterin complex [1] (compound 40 at 100-300 µM, compound 60 at 300 µM) is recorded as “expels TRF1 from purified shelterin; also recorded: concentration-dependent increase in eviction of TRF1”. In addition, the “reduction in size of shelterin mass photometry peak” value on shelterin complex [1] (upon addition of > 250 µM compound) is reported as “around 100 kDa”. On shelterin complex [2] (0.9 µM shelterin, 0-300 µM compound, 0.075% glutaraldehyde), the “release of TRF1 (species migrating between 100 and 150 kDa)” value was “dose-dependently liberated”. The “release of TRF2 and TIN2 from shelterin” value at shelterin complex [2] (Western blot probing for TRF2 and TIN2) is reported as “TRF2 was not released, nor was TIN2”.

These data come from PMC12635197, “Discovery of first-in-class inhibitors of the TRF1:TIN2 protein:protein interaction by fragment screening” (Scientific Reports, 2025).
